Results published in PubChem BioAssay (NCI).
Values joined by “and” are separate entries in the source; they are usually repeats but may differ in a detail not shown here. Equal entries are not always repeated.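 Cultured in 96-well plates, cells were exposed to test compound for 48 hours across five concentrations. At the GI50, growth is halved. TGI is the concentration that stops growth completely.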

Columns and labels:
Assay in all cases: NCI tumour cell line growth inhibition, 48 h
SF-268 CNS = tested on: SF-268 CNS
SF-539 CNS = tested on: SF-539 CNS
OVCAR-4 ovarian = tested on: OVCAR-4 ovarian
OVCAR-5 ovarian = tested on: OVCAR-5 ovarian
T-47D breast = tested on: T-47D breast
HCT-15 colon = tested on: HCT-15 colon
CCRF-CEM leukemia = tested on: CCRF-CEM leukemia
NCI-H23 lung = tested on: NCI-H23 lung

SMILES | GI50 (SF-268 CNS) | TGI (SF-268 CNS) | GI50 (SF-539 CNS) | TGI (SF-539 CNS) | GI50 (OVCAR-4 ovarian) | TGI (OVCAR-4 ovarian) | GI50 (OVCAR-5 ovarian) | TGI (OVCAR-5 ovarian) | GI50 (T-47D breast) | TGI (T-47D breast) | GI50 (HCT-15 colon) | TGI (HCT-15 colon) | GI50 (CCRF-CEM leukemia) | TGI (CCRF-CEM leukemia) | GI50 (NCI-H23 lung) | TGI (NCI-H23 lung)
C=C1C(=O)O[C@H]2[C@H]1CC/C(COC(=O)/C=C\C(=O)NCc1ccc(Cn3c(=O)sn(-c4ccc(OC)cc4)c3=O)cc1)=C\CC[C@@]1(C)O[C@@H]21 | 0.693 µM | 1.37 µM | 0.736 µM | 1.41 µM | 0.706 µM | 1.39 µM | 0.825 µM | 1.71 µM | 0.839 µM | 2.02 µM | 0.443 µM | 1.56 µM | 0.174 µM | 4.27 µM | 0.863 µM | 1.84 µM
O=C1Nc2ccccc2C1(c1ccc(O)c(F)c1)c1ccc(O)c(F)c1 | 16.1 µM | 62.1 µM | 12.6 µM | 36.8 µM | 0.237 µM | 0.659 µM | 16.4 µM | 44.1 µM | 0.226 µM | 0.622 µM | 8.34 µM | 34.4 µM | 17.8 µM | 73.3 µM | 0.532 µM | 25.2 µM
O=S(=O)(O)c1ccc(Cl)cc1.[Cd] | 24.7 µM | 72 µM | 13.7 µM | 32.4 µM | 51.9 µM | > 100 µM | > 100 µM | > 100 µM | 27 µM | 53.8 µM | > 100 µM | > 100 µM | 24.9 µM | 85.4 µM | 23.2 µM | 82.3 µM
C/C(=N\Nc1ccc2ccccc2n1)c1ccccc1O |  | > 100 µM |  | > 100 µM |  | > 100 µM |  | > 100 µM |  | > 100 µM |  | > 100 µM |  | > 29.4 µM |  | > 100 µM
O=C(/C=C/c1ccccn1)c1ccccc1O | 2.53 µM | 7.02 µM | 2.05 µM | 4.2 µM | 2.98 µM | 8.84 µM | 2.43 µM | 6.8 µM | 2.45 µM | 8.36 µM | 2.35 µM | 6.68 µM | 1.71 µM | 5.43 µM | 2.35 µM | 8.76 µM
Cc1ccc(Cl)cc1Nc1nc(C(F)(F)F)ccc1C(=O)N/N=C/c1c(Cl)cccc1Cl | 0.623 µM | 13.4 µM | 1.62 µM | 5.05 µM | 0.289 µM |  | 2.21 µM | 20.4 µM | 0.517 µM | 5.18 µM | 0.41 µM | 12.8 µM | 0.289 µM | 1.56 µM | 1.55 µM | 7.39 µM
O=C1CSC(=S)N1c1ccc(F)cc1F |  | > 100 µM |  | > 100 µM |  | > 100 µM |  |  |  | > 100 µM |  | > 100 µM |  | 76.4 µM |  | > 100 µM
O=C(CCCCC(=O)N/N=C\c1ccccc1Cl)N/N=C\c1ccccc1Cl | 13.5 µM | 56.7 µM | 16.9 µM | > 100 µM | 7.55 µM | > 100 µM | > 100 µM | > 100 µM | 3.36 µM | > 100 µM | 3.08 µM | > 100 µM | > 100 µM | > 100 µM | 13.7 µM | > 100 µM
CC1(C)CC[C@]2(C(=O)n3ccnc3)CC[C@]3(C)[C@H](C(=O)C=C4[C@@]5(C)C=C(C#N)C(=O)C(C)(C)[C@@H]5CC[C@]43C)[C@@H]2C1 | 0.0164 µM | > 100 µM | < 0.0114 µM | < 0.0336 µM | 0.0359 µM | 0.173 µM | 0.0103 µM | 0.137 µM | 0.0446 µM | 0.395 µM | < 0.01 µM | 0.0204 µM | < 0.01 µM | 0.0438 µM | < 0.0151 µM | 0.0786 µM
CC1(C)CC(=O)C2=C(C1)NC(SSC1=C(C#N)C(c3ccc(Br)cc3)C3=C(CC(C)(C)CC3=O)N1)=C(C#N)C2c1ccc(Br)cc1 (configuration not stated) | > 150 µg/mL | > 100 µM and 150 µg/mL | > 150 µg/mL | > 100 µM and 150 µg/mL | 34.4 µg/mL | > 100 µM and 84.8 µg/mL | > 150 µg/mL | > 100 µM and 150 µg/mL | 35 µg/mL | > 100 µM and 119 µg/mL | 88.6 µg/mL | > 100 µM and 150 µg/mL | 34.3 µg/mL | > 100 µM and 107 µg/mL | > 150 µg/mL | > 100 µM and 150 µg/mL
CCCCCCCCCCCC1=NC(C)(C)CN1CCO | 6.68 µM | 20.3 µM | 4.37 µM | 8.79 µM | 7.45 µM | 21.5 µM | 15.9 µM | 30.9 µM | 4.04 µM | 16.9 µM | 1.98 µM | 4.42 µM | 3.54 µM | 18.4 µM | 5.56 µM | 18.6 µM
COc1cc(C(=O)NC2CCN(C)CC2)ccc1Nc1ncc2c(n1)N(C1CCCC1)CC(F)(F)C(=O)N2C | 0.0487 µM | 12.5 µM | 0.0215 µM | 5.13 µM | 0.264 µM | 12.5 µM | 0.0188 µM | 12.1 µM | 0.177 µM | 12.6 µM | 0.468 µM | 13.7 µM | < 0.01 µM | 12.2 µM | < 0.0114 µM | 2.98 µM
Nc1ccccc1/C=N\Nc1ccccc1 | > 100 µM | > 100 µM | 1.27 µM | 7.04 µM | 3.91 µM | > 100 µM | > 100 µM | > 100 µM | 5.04 µM | > 100 µM | 5.13 µM | > 100 µM | 0.431 µM | > 100 µM | > 100 µM | > 100 µM
COc1ccccc1CNCCCN1C(=O)c2ccc3c4c(ccc(c24)C1=O)C(=O)N(CCCNCCCCNCCCCN)C3=O | 0.903 µM | 6.99 µM | 2.15 µM | 5.5 µM | 0.346 µM | 1.4 µM | 2.23 µM | 7 µM | 0.782 µM | 3.14 µM | 2.92 µM | 22.8 µM | 0.756 µM | > 33.4 µM | 2.43 µM | 7.59 µM
CCCN(CCC)c1ccc(C=O)cc1 | 53.2 µM | > 100 µM | > 100 µM | > 100 µM | 26.5 µM | > 100 µM | > 100 µM | > 100 µM | 21.1 µM | > 100 µM | > 84.2 µM | > 100 µM | 30.2 µM | > 100 µM | 36.9 µM | > 100 µM
